# Literature values as cited in US6765015B2, “Halogenated paclitaxel derivatives” (Xechem International, Inc., priority 1995, dated 2004).
# Test system: leukemic tumors
# Details: in vivo
compound,measurement,value
"C/C=C(\C)C(=O)N[C@@H](c1ccccc1)[C@@H](O)C(=O)O[C@H]1C[C@@]2(O)[C@@H](OC(=O)c3ccccc3)[C@@H]3[C@]4(OC(C)=O)CO[C@@H]4C[C@H](O)[C@@]3(C)C(=O)[C@H](OC(C)=O)C(=C1C)C2(C)C [Cephalomannine, cephalomannine]",remission of leukemic tumors,effective in causing remission of leukemic tumors
